Test results published in patent publication US6492380B1, “Method of inhibiting neurotrophin-receptor binding” (Queen's University at Kingston, priority 1999, dated 2002).

What was measured:
[1] = test system: T1, PC12 cells expressing TrkA and p75^NTR; assay: 125I-NGF receptor binding inhibition, PC12 cells; set-up: species or system rat; conditions: compound 50 μM; 125I-NGF 1 nM; 2 h at 4° C.; value is mean of the three replicates
T1 construct: host or cells: PC12 (rat pheochromocytoma)
Procedure: (§1) The radio-iodination and receptor binding of NGF (Sutter et al., 1979) was performed with modifications (Ross et al., 1997) as follows: Evaluation of the ability of NCP compounds to inhibit TrkA and p75^NTR binding was determined by the binding of ^125I-NGF to PC12 cells (rat pheochromocytoma cells expressing TrkA and p75^NTR obtained from ATCC) and PC12^nnr5 (rat pheocliromocytoma cells expressing p75^NTR only; obtained from Dr. L. Greene, Columbia University, NY). The p75^NTR is in a low affinity state and a high affinity state, respectively, in these cell types (Ross et al., 1998). PC12 and PC12^nnr5 cells were grown in RPMI (Sigma) with 10% heat inactivated donor horse serum and 5% fetal calf serum. Cells were harvested by replacing the medium with calcium, magnesium-free balanced salt solution (Gey's solution) and incubating at 37° C. for 15 minutes. Cells were pelleted by centrifugation and suspended in HKR buffer (10 mM Hepes [pH 7.35] containing 125 mM NaCl, 4.8 mM KCl, 1.3 mM CaCl2, 1.2 mM MgSO4, 1.2 mM KH2PO4, 1 g/L glucose and 1 g/L BSA) at a cell concentration of 2×10^6/mL and kept at 4° C. Triplicate tubes were set up for total binding, non-specific binding and binding in the presence of candidate competitor molecule (i.e., a tube for each data point). Each tube contained ^125I-NGF (at 1 nM), 400,000 cells (for a final cell concentration of 10^6/mL) and NGF (50 nM, to define non-specific binding), as required. The tubes were incubated for 2 h at 4° C. and specific binding evaluated by measuring specifically bound DPM (Ross et al., 1997). Data were analysed and the results expressed as receptor binding observed in the presence of competitor as a percentage of receptor binding in the absence of a competitor.

[2] = test system: T2, PC12^nnr5 cells expressing p75^NTR only; assay: 125I-NGF receptor binding inhibition, PC12^nnr5 cells; set-up: species or system rat; conditions: compound 50 μM; 125I-NGF 1 nM; 2 h at 4° C.; value is mean of the three replicates
T2 construct: PC12^nnr5 (rat pheocliromocytoma cells expressing p75^NTR only; obtained from Dr. L. Greene, Columbia University, NY); host or cells: PC12nnr5 (rat pheochromocytoma subline)
T2 sequence (P01139 122-241): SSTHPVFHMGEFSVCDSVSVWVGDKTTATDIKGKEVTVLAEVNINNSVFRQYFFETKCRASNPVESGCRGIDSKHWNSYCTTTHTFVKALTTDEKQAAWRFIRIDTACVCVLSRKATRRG
Procedure: as §1

[3] = @ 100 μM DMSO

T1 sequence (P01139 122-241): as above

Row | PC12 % of Max (receptor binding in presence of competitor as percentage of binding in absence of competitor) [1] | nnr5 % of Max (receptor binding in presence of competitor as percentage of binding in absence of competitor) [2] | Solubility [3] | Compound
1 | 92, 87, 74 = 84 % of Max | 58, 63, 64 = 62 % of Max |  | O=C(O)CN1C(=O)c2cccc3cc([N+](=O)[O-])cc(c23)C1=O [Compound 200, N-(1-carboxymethyl)-3-nitro-1,8-naphthalimide; 2-(1-carboxymethyl)-5-nitrobenzo[d,e]isoquinoline-1,3-dione]
2 | 27, 32, 41 = 33 % of Max | 30, 4, 34 = 23 % of Max |  | O=C(O)CCN1C(=O)c2cccc3cc([N+](=O)[O-])cc(c23)C1=O [Compound 201, N-(2-carboxyethyl)-3-nitro-1,8-naphthalimide; 2-(2-carboxyethyl)-5-nitrobenzo[d,e]isoquinoline-1,3-dione]
3 | 21, 22, 30 = 24 % of Max | 16, 0, 0 = 5 % of Max |  | O=C(O)CCCN1C(=O)c2cccc3cc([N+](=O)[O-])cc(c23)C1=O [Compound 202, N-(3-carboxypropyl)-3-nitro-1,8-naphthalimide; 2-(3-carboxypropyl)-5-nitrobenzo[d,e]isoquinoline-1,3-dione]
4 | 36, 41, 35 = 37 % of Max | 33, 0, 18 = 17 % of Max |  | O=C(O)CCCCN1C(=O)c2cccc3cc([N+](=O)[O-])cc(c23)C1=O [Compound 203, N-(4-carboxybutyl)-3-nitro-1,8-naphthalimide; 2-(4-carboxybutyl)-5-nitrobenzo[d,e]isoquinoline-1,3-dione]
5 | 41, 41, 36 = 39 % of Max | 12, 0, 47 = 20 % of Max |  | O=C(O)CCCCCN1C(=O)c2cccc3cc([N+](=O)[O-])cc(c23)C1=O [Compound 204, N-(5-carboxypentyl)-3-nitro-1,8-naphthalimide; 2-(5-carboxypentyl)-5-nitrobenzo[d,e]isoquinoline-1,3-dione]
6 | 37, 43, 49 = 43 % of Max | 21, 17, 26 = 21 % of Max | 220 NS (NS: Not Soluble @ 100 μM DMSO) | O=C(O)CN1C(=O)c2cccc3c([N+](=O)[O-])ccc(c23)C1=O [Compound 220, N-(1-carboxymethyl)-4-nitro-1,8-naphthalimide; 2-(1-carboxymethyl)-6-nitrobenzo[d,e]isoquinoline-1,3-dione]
7 | 29, 32, 31 = 31 % of Max | 41, 37, 42 = 40 % of Max |  | O=C(O)CCN1C(=O)c2cccc3c([N+](=O)[O-])ccc(c23)C1=O [Compound 221, N-(2-carboxyethyl)-4-nitro-1,8-naphthalimide; 2-(2-carboxyethyl)-6-nitrobenzo[d,e]isoquinoline-1,3-dione]
8 |  |  | 222 NS (NS: Not Soluble @ 100 μM DMSO) | O=C(O)CCCN1C(=O)c2cccc3c([N+](=O)[O-])ccc(c23)C1=O [Compound 222, N-(3-carboxypropyl)-4-nitro-1,8-naphthalimide; 2-(3-carboxypropyl)-6-nitrobenzo[d,e]isoquinoline-1,3-dione]
9 | 27, 33, 33 = 31 % of Max | 40, 41, 47 = 43 % of Max |  | O=C(O)CCCCN1C(=O)c2cccc3c([N+](=O)[O-])ccc(c23)C1=O [Compound 223, N-(4-carboxybutyl)-4-nitro-1,8-naphthalimide; 2-(4-carboxybutyl)-6-nitrobenzo[d,e]isoquinoline-1,3-dione]
10 | 31, 34, 22 = 29 % of Max | 36, 35, 39 = 36 % of Max |  | O=C(O)CCCCCN1C(=O)c2cccc3c([N+](=O)[O-])ccc(c23)C1=O [Compound 224, N-(5-carboxypentyl)-4-nitro-1,8-naphthalimide; 2-(5-carboxypentyl)-6-nitrobenzo[d,e]isoquinoline-1,3-dione]
